Consider 10 compounds from ChEMBL document CHEMBL1201862, “PubChem BioAssay data set” (2004).

Holding throughout (test): NCI-60 cell line screen, 48 h
Assay [1] concerns SN12C.
The subject of assay [2] is MOLT-4.
In assay [3] the test system is MDA-MB-435.
In assay [4] the test system is SF-295.
Assay [5] concerns K562.
For assay [6], the system named is SK-MEL-28.
Assay [7] concerns M14.
Assay [8] deals with MCF7.
The subject of assay [9] is SK-OV-3.
Assay [10] has as its system OVCAR-5.
In assay [11] the test system is Malme-3M.
Assay [12] relates to U-251.
Assay [13] deals with T47D.
Assay [14] concerns IGROV-1.
Assay [15] relates to EKVX.
Assay [16] concerns SK-MEL-2.
Assay [17] relates to KM12.
Assay [18] concerns HOP-62.
In assay [19] the test system is BT-549.
Assay [20] relates to MDA-MB-231.

Molecules are shown by their SMILES.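 Values below derive from 48-hour exposures of cells grown in 96-well plates, with endpoints linearly interpolated between the two concentrations bracketing the appropriate inhibition level. GI50 is the concentration that inhibits growth by half.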 Active and inactive are the calls of the source. Rule as the data show it: active = GI50 up to about 1.1 µM and inactive = higher. Where a SMILES comes first, the peptide text is derived from it. The star is where a group is joined. Boc = CC(C)(C)OC(=O)*; tBu = CC(C)(C)*

For `CC(=O)Nc1nc(NC(C)=O)c2nc(CO)[nH]c2n1`, the GI50 in [1], in assay [2], in assay [3], in assay [4], in assay [5] and in [6] was > 100 µM (inactive) throughout. The GI50 in assay [7], in assay [8], in assay [9], in assay [10], in [11] and in assay [12] was > 100 µM (inactive) in each case. In addition, the GI50 in [13], in assay [14], in assay [15], in assay [16], in assay [17] and in [18] was > 100 µM (inactive) in each case. Further, the GI50 in assay [19] and in [20] was > 100 µM (inactive) throughout.

In the case of `O=c1c(S(=O)(=O)Oc2ccccc2)coc2cc(F)ccc12`, the GI50 in assay [1] is > 100 µM (inactive); in assay [2] it was > 100 µM (inactive); in [3] it was > 100 µM (inactive); in assay [4], 30.3 µM (inactive); in [5], > 100 µM (inactive); in [6], > 100 µM (inactive). In addition, the GI50 in assay [7] was > 100 µM (inactive); in [8], 74.8 µM (inactive); in [9], > 100 µM (inactive); in assay [10], > 100 µM (inactive); in assay [11], > 100 µM (inactive); in assay [12], > 100 µM (inactive). Also, the GI50 in assay [13] is 55 µM (inactive); in assay [14], > 100 µM (inactive); in [15] it was > 100 µM (inactive); in [16], 46.8 µM (inactive); in assay [17] it was > 100 µM (inactive); in assay [18], > 100 µM (inactive). Further, the GI50 in assay [19] was 37.2 µM (inactive); in assay [20], > 100 µM (inactive).

For `Cc1cccc(C)c1NC(=O)C(Cc1c[nH]c2ccccc12)NC(=O)OCc1ccccc1` (stereo not given), the GI50 was 21.5 µM (inactive) in assay [1]; 15.4 µM (inactive) in [2]; 14.7 µM (inactive) in assay [3]; 17 µM (inactive) in assay [4]; 30.2 µM (inactive) in [5]; 18.9 µM (inactive) in assay [6]. The GI50 was 11.5 µM (inactive) in [7]; 23.2 µM (inactive) in [8]; 22.8 µM (inactive) in assay [9]; 18.8 µM (inactive) in assay [10]; 20.1 µM (inactive) in assay [11]; 19.5 µM (inactive) in assay [12]. The GI50 is 20.6 µM (inactive) in assay [13]; 19.6 µM (inactive) in assay [14]; 15.2 µM (inactive) in [15]; 16.9 µM (inactive) in assay [16]; 19.6 µM (inactive) in [17]; 41 µM (inactive) in assay [18]. For the same compound, the GI50 in assay [19] was 24.8 µM (inactive); in assay [20] it was 16.7 µM (inactive).

With `N#C/C(=C1\N=C(c2ccccc2O)Oc2ccccc21)c1ccc([N+](=O)[O-])cc1`, the GI50 in [1] was > 100 µM (inactive); in assay [2] it was > 100 µM (inactive); in assay [3], > 100 µM (inactive); in assay [4], 72.3 µM (inactive); in [5] it was > 100 µM (inactive); in [6], > 100 µM (inactive). Also, the GI50 in assay [7] is > 100 µM (inactive); in [8], > 100 µM (inactive); in [9], > 100 µM (inactive); in assay [10] it was > 100 µM (inactive); in [11], > 100 µM (inactive); in [12], 71.9 µM (inactive). Further, the GI50 was > 100 µM (inactive) in [13]; 88.9 µM (inactive) in assay [14]; > 100 µM (inactive) in [15]; > 100 µM (inactive) in assay [16]; > 100 µM (inactive) in [17]; 33.8 µM (inactive) in assay [18]. The GI50 in assay [19] and in assay [20] was > 100 µM (inactive) throughout.

Take `O=C1/C(=C\c2ccc(-c3ccc(Cl)cc3Cl)o2)SC2NC(COc3ccc(Cl)cc3)=NN12` (stereo not given): the GI50 is 72.1 µM (inactive) in [1]; 31.8 µM (inactive) in [2]; 38.7 µM (inactive) in assay [3]; 45.3 µM (inactive) in assay [4]; 48.9 µM (inactive) in assay [5]; > 100 µM (inactive) in assay [6]. The GI50 in assay [7] was > 100 µM (inactive); in [8], 33.4 µM (inactive); in assay [9] it was 88.3 µM (inactive); in [10], > 100 µM (inactive); in assay [11], 42.2 µM (inactive); in [12], 21.4 µM (inactive). For the same compound, the GI50 in assay [13] is 27.2 µM (inactive); in [14] it was 29.9 µM (inactive); in assay [15], 32.4 µM (inactive); in [16], 50.5 µM (inactive); in assay [17], 55.5 µM (inactive); in assay [18], 80.4 µM (inactive). Further, the GI50 in [19] is 47 µM (inactive); in assay [20] it was 44 µM (inactive).

For the compound `COc1c(C)c(OC)c2c(c1O)[C@@H]1[C@@H]3Cc4c(OC)c(C)c(OC)c(O)c4[C@H](CNC(=O)c4cnc5ccccc5n4)N3[C@@H](C#N)[C@H](C2)N1C`, the GI50 in assay [1] was 0.00329 µM (active); in [2], 0.000689 µM (active); in [3] it was 0.00255 µM (active); in assay [4], 0.00296 µM (active); in assay [5] it was 0.000977 µM (active); in [6], 0.0029 µM (active). Besides, the GI50 in [7] was 0.00221 µM (active); in assay [8], 0.00135 µM (active); in [9], 0.0125 µM (active); in assay [10] it was 0.00337 µM (active); in assay [11], 0.0013 µM (active); in [12], 0.00135 µM (active). The GI50 in assay [13] was 0.000522 µM (active); in assay [14], 0.0014 µM (active); in [15], 0.00149 µM (active); in [16], 0.00183 µM (active); in assay [17], 0.00149 µM (active); in [18], 0.00429 µM (active). The results for the GI50 in assay [19] and in [20] were 0.00132 µM (active) and 0.00326 µM (active), respectively.

As to `Cc1c2c(Cl)c3c(c(Cl)c2c(C)c2c(Cl)c4c(c(Cl)c12)C(c1ccccc1)(c1ccccc1)C4(c1ccccc1)c1ccccc1)C(c1ccccc1)(c1ccccc1)C3(c1ccccc1)c1ccccc1`, the GI50 in [1], in [2], in assay [3], in assay [4], in [5] and in [6] was > 100 µM (inactive) each time. Also, the GI50 in [7], in assay [8], in [9], in assay [10], in assay [11] and in assay [12] was > 100 µM (inactive) throughout. For the same compound, the GI50 in assay [13], in [14], in assay [15], in assay [16], in assay [17] and in assay [18] was > 100 µM (inactive) in each case. Moreover, the GI50 in assay [19] and in assay [20] was > 100 µM (inactive) each time.

In the case of `O=C(O)C1C2C=CC(O2)C1C(=O)NCc1cccnc1` (stereo not given), the GI50 in [1], in assay [2], in assay [3], in assay [4], in [5] and in [6] was > 100 µM (inactive) each time. The GI50 in assay [7], in assay [8], in assay [9], in assay [10], in assay [11] and in [12] was > 100 µM (inactive) in each case. Further, the GI50 in assay [13], in assay [14], in [15], in assay [16], in [17] and in assay [18] was > 100 µM (inactive) in each case. For the same compound, the GI50 in assay [19] and in [20] was > 100 µM (inactive) throughout.

Consider `CN(C)CCn1c(=O)c2ccc(NCCN3CCNCC3)c3c(=O)c4ccccc4n(c1=O)c23`, for which the GI50 in assay [1] was 1.47 µM (inactive); in [2], 0.0294 µM (active); in assay [3], 2.86 µM (inactive); in [4], 1.02 µM (active); in [5], 0.231 µM (active); in assay [6], 6.61 µM (inactive). For the same compound, the GI50 in [7] is 4.84 µM (inactive); in [8] it was 0.743 µM (active); in assay [9] it was 3.45 µM (inactive); in [10] it was 8.47 µM (inactive); in [11], 4.12 µM (inactive); in assay [12], 1.11 µM (active). Moreover, the GI50 in assay [13] is 9.68 µM (inactive); in [14], 0.345 µM (active); in [15] it was 1.87 µM (inactive); in [16], 2.56 µM (inactive); in [17], 1.63 µM (inactive); in [18] it was 4.06 µM (inactive). The GI50 was 7.33 µM (inactive) in assay [19] and 2.56 µM (inactive) in [20].

On to `CC(OC(C)(C)C)C(NC(=O)C(N)CCCCNC(=O)OC(C)(C)C)C(=O)NC(Cc1ccccc1)C(=O)O` (stereo not given) (H-Lys(Boc)-Thr(tBu)-Phe-OH; configuration not given here), for which the GI50 in assay [1], in assay [2], in assay [3], in assay [4], in assay [5] and in assay [6] was > 100 µM (inactive) throughout. The GI50 in assay [7] was > 100 µM (inactive); in assay [8] it was > 100 µM (inactive); in assay [9], 15.2 µM (inactive); in assay [10], > 100 µM (inactive); in assay [11], > 100 µM (inactive); in assay [12], > 100 µM (inactive). In addition, the GI50 in assay [13], in assay [14], in [15], in assay [16], in assay [17] and in assay [18] was > 100 µM (inactive) throughout. Also, the GI50 in [19] and in [20] was > 100 µM (inactive) each time.
